Experimental data as given in patent EP0312283A2, “Di-or tripeptide renin inhibitors containing lactam conformational restrictions in ACHPA” (Merck & Co., Inc., priority 1987, dated 1989).

System: human plasma renin
Experiment: In vitro inhibition of human plasma renin (Boger et al. assay)
Assay type: biochemical
Procedure: In vitro inhibition of human plasma renin was measured as described by Boger, et al., J. Med. Chem (1985) 28, 1779.
They were analyzed for purity by HPLC (30 minute gradient, 5% CH3CN-H2O to 95% CH3CN-H20 buffered with 0.1% H3PO4; C18 reverse phase column), and were analyzed for composition by C, H, and N combustion analysis. IC50 values were measured in vitro using the human plasma renin assay, as described by Boger et al. J. Med. Chem. (1985) 28, 1779.

Boc-Phe-His-(ACHP-1-(2-Hydroxyethyl)-2-Pyrrolidinone [Example 3H]
IC50: 7.7 nM
